From ChEMBL document CHEMBL1201862, “PubChem BioAssay data set” (2004)
The source made the active and inactive calls. Rule as the data show it: actives have a measured IC50 and inactives only a lower limit.

Molecular target: Envelope glycoprotein gp160 (Human immunodeficiency virus 1, UniProt Q6QLK5)
Experiment: cell-free HIV fusion peptide-binding blockers – biochemical, uHTS, fluorescence dequenching, […] (AID 1986)

Sequence of Envelope glycoprotein gp160 (Q6QLK5 whole entry, the tested form may be a part): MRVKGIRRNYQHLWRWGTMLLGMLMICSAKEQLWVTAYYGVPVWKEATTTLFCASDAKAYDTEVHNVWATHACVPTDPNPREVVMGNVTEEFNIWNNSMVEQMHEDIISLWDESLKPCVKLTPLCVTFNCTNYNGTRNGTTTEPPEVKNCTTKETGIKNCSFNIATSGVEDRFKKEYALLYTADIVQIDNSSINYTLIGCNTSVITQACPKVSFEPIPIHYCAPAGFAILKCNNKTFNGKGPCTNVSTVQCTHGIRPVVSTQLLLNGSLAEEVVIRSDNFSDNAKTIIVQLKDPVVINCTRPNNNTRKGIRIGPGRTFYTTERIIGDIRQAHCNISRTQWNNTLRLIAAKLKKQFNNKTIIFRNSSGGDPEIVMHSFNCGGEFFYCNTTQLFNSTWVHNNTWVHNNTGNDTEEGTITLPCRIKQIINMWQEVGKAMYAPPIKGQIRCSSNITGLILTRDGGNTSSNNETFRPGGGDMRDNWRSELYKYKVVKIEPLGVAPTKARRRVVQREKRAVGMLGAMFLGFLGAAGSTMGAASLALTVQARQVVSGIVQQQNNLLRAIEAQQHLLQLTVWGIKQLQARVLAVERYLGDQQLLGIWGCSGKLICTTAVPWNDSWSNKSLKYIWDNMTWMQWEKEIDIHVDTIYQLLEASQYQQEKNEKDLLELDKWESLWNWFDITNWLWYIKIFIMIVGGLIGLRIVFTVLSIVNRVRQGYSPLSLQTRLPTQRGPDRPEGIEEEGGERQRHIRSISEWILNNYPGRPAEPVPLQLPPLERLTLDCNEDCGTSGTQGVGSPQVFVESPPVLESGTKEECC

## Cc1c(CCC(=O)O)c(=O)oc2c(C)c3occ(-c4ccc(Br)cc4)c3cc12
  IC50: 21.3 µM (active)
